These results are taken from ChEMBL document CHEMBL1140023, “Synthesis of marine alkaloid: 8,9-dihydrocoscinamide B and its analogues as Novel class of antileishmanial agents” (2007).

The source made the active and inactive calls. The rule behind the calls is not given here.

Common to all, as to assay type: functional
Assay [1] has as its system Leishmania donovani. The assay is described as follows: Antileishmanial activity against Leishmania donovani assessed as inhibition of promastigotes at 10 ug/ml.
Assay [2] has as its system Leishmania donovani. The assay can be described thus: Antileishmanial activity against Leishmania donovani assessed as inhibition of amastigotes at 10 ug/ml.
Assay [3] concerns Leishmania donovani. The assay is described as follows: Antileishmanial activity against Leishmania donovani assessed as inhibition of amastigotes at 50 ug/ml.
In assay [4] the test system is Leishmania donovani. The assay can be described thus: Antileishmanial activity against Leishmania donovani assessed as inhibition of promastigotes at 0.5 ug/ml.

A word on the inhibition: it is the change of the read-out against control, counted positive when it falls. For the compound `O=C(NCc1ccco1)C(=O)c1c[nH]c2ccccc12`, the inhibition at 10 µg/mL in the assay with Leishmania donovani [1] was determined as 99.2%. For the same compound, in the assay with Leishmania donovani [2], the outcome was inactive. As to `O=C(Nc1ccc2[nH]ccc2c1)C(=O)c1c[nH]c2ccccc12`, the inhibition at 10 µg/mL in the assay with Leishmania donovani [1] is 93.7%. For the same compound, in the assay with Leishmania donovani [2], the result was Active.

In the case of `N=C(N)c1ccc(OCCCCCOc2ccc(C(=N)N)cc2)cc1` [PENTAMIDINE], the inhibition at 50 µg/mL with Leishmania donovani [3] worked out at 90%. Also, the inhibition at 0.5 µg/mL in the assay with Leishmania donovani [4] came out at 85%. Further, the inhibition at 10 µg/mL in the assay on Leishmania donovani [1] turned out to be 30%.

Regarding `Cn1cc(CCNC(=O)C(=O)c2cn(C)c3ccccc23)c2ccccc21`, the inhibition at 10 µg/mL with Leishmania donovani [1] worked out at 99%; with Leishmania donovani [2] it was 97.8%. Turning to `O=C(Nc1nc2ccccc2s1)C(=O)c1c[nH]c2ccccc12`, the inhibition at 10 µg/mL in the assay on Leishmania donovani [1] came out at 18%. `O=C(NCCc1cn(S(=O)(=O)c2ccccc2)c2ccccc12)C(=O)c1cn(S(=O)(=O)c2ccccc2)c2ccccc12`: the inhibition at 10 µg/mL with Leishmania donovani [1] stood at 49%. Same read-out and setting: for `O=C(NCc1ccccc1)C(=O)c1c[nH]c2ccccc12` the value was 53.9%; for `O=C(NCCCN1CCOCC1)C(=O)c1c[nH]c2ccccc12`, 73%. Regarding `O=C(C(=O)N1CCOCC1)c1c[nH]c2ccccc12`, the inhibition at 10 µg/mL in the assay on Leishmania donovani [1] was 83.2%; with Leishmania donovani [2] it was 78.1%. Take `O=C(NCCc1c[nH]c2ccccc12)C(=O)c1c[nH]c2c(Cl)cccc12`: the results for the inhibition at 10 µg/mL with Leishmania donovani [1] and in the assay with Leishmania donovani [2] were 99.1% and 59.1%, respectively.

`COc1ccc(CCNC(=O)C(=O)c2c[nH]c3ccccc23)cc1`: the inhibition at 10 µg/mL with Leishmania donovani [1] was found to be 68.5%. On the same count and under the same terms, the same measure for `N=C(N)NC(=O)C(=O)c1c[nH]c2ccccc12`: 55%; for `O=C(NCCCn1ccnc1)C(=O)c1c[nH]c2ccccc12`: 55.5%. For the compound `CN1CCN(C(=O)C(=O)c2c[nH]c3ccccc23)CC1`, in the assay with Leishmania donovani [1], the inhibition at 10 µg/mL came to 35.9%. Consider `COc1ccc(CCNC(=O)C(=O)c2c[nH]c3ccccc23)cc1OC`, for which the inhibition at 10 µg/mL in the assay on Leishmania donovani [1] came out at 78.2%. Regarding `O=C(NCCc1c[nH]c2ccccc12)C(=O)c1c[nH]c2ccccc12`, the inhibition at 10 µg/mL came to 100% in the assay with Leishmania donovani [1] and 97.7% with Leishmania donovani [2].

Consider `O=C(NCCc1c[nH]c2ccccc12)C(=O)c1c[nH]c2cc(Br)ccc12`, for which the figures for the inhibition at 10 µg/mL in the assay on Leishmania donovani [1] and in the assay with Leishmania donovani [2] were 99.2% and 75.1%, respectively.
